Test results: US11873320B2 (REATA PHARMACEUTICALS HOLDINGS, LLC, priority 2013, dated 2024)
Where two headings read alike, the source gives them in different places.

Key:
[1] = system: CYP3A4; experiment: CYP450 induction in cultured human hepatocytes: CYP3A4; assay type: in vitro ADME; conditions: up to 3 μM
[2] = system: Sprague Dawley rats; experiment: 14-day rat toxicity study (tissue distribution, Nrf2 targets)
[3] = system: TNFα-induced NF-κB activation; experiment: TNFα-induced NF-κB luciferase reporter, A549/NF-κB-Luc cells; assay type: cell-based; conditions: Homo sapiens
From the text: NF-κB is a transcription factor that plays a central role in the regulation of many immune and inflammatory responses.

[4] = oral pharmacokinetics in monkeys; assay type: in vivo, monkey; conditions: 3 mg/kg
Protocol: Following oral administration of a suspension formulation at doses of 10 to 100 mg/kg, maximal concentrations were observed within 1 to 2 hours in mice, and within 1 to 24 hours in rats and monkeys.

[5] = target: MRP-1 (Homo sapiens, UniProt P33527); experiment: in vitro efflux by MRP-1; conditions: not told
[6] = system: CD rats; experiment: neurobehavioral evaluation in rats (FOB); assay type: in vivo, rat
Protocol: One additional group of 10 animals/sex served as the control and received vehicle (sesame oil).
Observations for morbidity, mortality, injury, and availability of food and water were conducted twice daily for all animals. Observations for clinical signs were conducted prior to dosing on Day 1 and following each functional observational battery (FOB) evaluation. FOB evaluations were conducted pre-dose (Day −1) and at approximately 4 and 24 hours post-dose. Body weights were measured and recorded pre-dose on Day 1.

[7] = system: NQO1 protein; experiment: Nrf2 target protein levels in SH-SY5Y cells; assay type: cell-based, human; conditions: dose-dependent
Protocol: (§1) HMOX1 protein was not detected in untreated or RTA 408-treated SH-SY5Y cells. […] The same amount of 63170 (54.6 nM) was required.

[8] = system: fractionated radiation dermatitis; experiment: fractionated radiation dermatitis model, Balb/c mice; assay type: in vivo, mouse; conditions: 0.1 to 1% topical formulations
Protocol: The mice were irradiated on days 0-2 and 5-7 with six 10-Gy doses […]. Clinical dermatitis scores for the mice were evaluated blindly every two days from day 4 until the end of the study. […] Study and treatment parameters can be found in Table 6.
By analyzing the average clinical scores that were shown in FIG. 43, an area under the curve (AUC) analysis was performed, which yielded the severity of the dermatitis relative to how long the dermatitis persisted.

[9] = system: RANKL-induced TRAP activity and formation of osteoclasts; experiment: RANKL-induced osteoclastogenesis in RAW264.7; assay type: cell-based; conditions: Mus musculus, Osteoclast; 2 h pretreatment, 50 ng/mL RANKL
From the text: Osteoclastogenesis is a multi-step differentiation process that results from the binding of RANKL to its receptor, RANK, on cells of hematopoietic origin.

[10] = system: LPS-induced pulmonary inflammation
[11] = metabolism in rodent liver microsomes; assay type: in vitro ADME, mice, rats; conditions: 60-minute incubation, NADPH and UGT
[12] = system: NQO1; experiment: NQO1 enzymatic activity in RAW264.7 cells; assay type: cell-based, mouse; conditions: 24 hours
Protocol: Consistent with induction of Nrf2 target genes and corresponding protein products, treatment of RAW264.7 mouse macrophage cells for 24 hours increased NQO1 enzymatic activity in a dose-dependent manner, with increases evident at 7.8 nM (FIG. 6).

[13] = system: LPS-induced pulmonary inflammation; experiment: LPS-induced pulmonary inflammation in mice, first study (QD×3); assay type: in vivo, mouse
Protocol: Animals were sacrificed 20 hours after LPS administration. BALF was examined for pro-inflammatory cytokine expression.

[14] = system: glutathione levels; experiment: induction of glutathione levels, RAW264.7 mouse model; assay type: cell-based
From the text: Glutathione and NADPH are critical factors required for the maintenance of cellular redox capacity. […] Data shown are representative of two independent experiments.

[15] = metabolism in human liver microsomes
[16] = system: Nrf2 protein expression in SK-N-SH cells; experiment: in-cell western NQO1 assay, SK-N-SH cells; assay type: cell-based; conditions: Homo sapiens, 72 h, 3 days incubation, read-out: EC50 for induction of Nrf2 protein expression in SK-N-SH cells
Protocol: as §1
The EC50 was measured using an in-cell western NQO1 assay where the cells were incubated with the compound under evaluation for 3 days. After incubation with the compound of interest, the cells were reacted with mouse NQO1 antibody and then the next day the cells were reacted with IRDye-800CW-anti-mouse IgG antibody. The target signals were visualized and then analyzed.

[17] = system: bleomycin-induced pulmonary fibrosis
[18] = system: ovalbumin-induced asthma; experiment: ovalbumin-induced asthma in mice; assay type: in vivo, mouse
From the text: Mice were sensitized with an IP injection of ovalbumin and aluminum hydroxide on Day 0 and Day 14 and challenged intranasally with ovalbumin in saline on Days 14, 25, 26, and 27. […] An increase in the number of T cells and B cells was also observed in the vehicle-treated mice.

[19] = oral pharmacokinetics, statements pooled over mice, rats and monkeys; assay type: in vivo
[20] = system: Nrf2 target genes; experiment: Nrf2 target gene expression in BEAS-2B bronchial epithelial cells; assay type: cell-based, human; conditions: 18 hours
[21] = system: Nrf2 target genes; experiment: Nrf2 target gene expression in HFL1 lung fibroblasts (quantitative PCR); assay type: cell-based, human; conditions: 18 hours
[22] = 10 mg/kg, four hours after final dose, Day 14

Chain of MRP-1 (P33527 whole entry): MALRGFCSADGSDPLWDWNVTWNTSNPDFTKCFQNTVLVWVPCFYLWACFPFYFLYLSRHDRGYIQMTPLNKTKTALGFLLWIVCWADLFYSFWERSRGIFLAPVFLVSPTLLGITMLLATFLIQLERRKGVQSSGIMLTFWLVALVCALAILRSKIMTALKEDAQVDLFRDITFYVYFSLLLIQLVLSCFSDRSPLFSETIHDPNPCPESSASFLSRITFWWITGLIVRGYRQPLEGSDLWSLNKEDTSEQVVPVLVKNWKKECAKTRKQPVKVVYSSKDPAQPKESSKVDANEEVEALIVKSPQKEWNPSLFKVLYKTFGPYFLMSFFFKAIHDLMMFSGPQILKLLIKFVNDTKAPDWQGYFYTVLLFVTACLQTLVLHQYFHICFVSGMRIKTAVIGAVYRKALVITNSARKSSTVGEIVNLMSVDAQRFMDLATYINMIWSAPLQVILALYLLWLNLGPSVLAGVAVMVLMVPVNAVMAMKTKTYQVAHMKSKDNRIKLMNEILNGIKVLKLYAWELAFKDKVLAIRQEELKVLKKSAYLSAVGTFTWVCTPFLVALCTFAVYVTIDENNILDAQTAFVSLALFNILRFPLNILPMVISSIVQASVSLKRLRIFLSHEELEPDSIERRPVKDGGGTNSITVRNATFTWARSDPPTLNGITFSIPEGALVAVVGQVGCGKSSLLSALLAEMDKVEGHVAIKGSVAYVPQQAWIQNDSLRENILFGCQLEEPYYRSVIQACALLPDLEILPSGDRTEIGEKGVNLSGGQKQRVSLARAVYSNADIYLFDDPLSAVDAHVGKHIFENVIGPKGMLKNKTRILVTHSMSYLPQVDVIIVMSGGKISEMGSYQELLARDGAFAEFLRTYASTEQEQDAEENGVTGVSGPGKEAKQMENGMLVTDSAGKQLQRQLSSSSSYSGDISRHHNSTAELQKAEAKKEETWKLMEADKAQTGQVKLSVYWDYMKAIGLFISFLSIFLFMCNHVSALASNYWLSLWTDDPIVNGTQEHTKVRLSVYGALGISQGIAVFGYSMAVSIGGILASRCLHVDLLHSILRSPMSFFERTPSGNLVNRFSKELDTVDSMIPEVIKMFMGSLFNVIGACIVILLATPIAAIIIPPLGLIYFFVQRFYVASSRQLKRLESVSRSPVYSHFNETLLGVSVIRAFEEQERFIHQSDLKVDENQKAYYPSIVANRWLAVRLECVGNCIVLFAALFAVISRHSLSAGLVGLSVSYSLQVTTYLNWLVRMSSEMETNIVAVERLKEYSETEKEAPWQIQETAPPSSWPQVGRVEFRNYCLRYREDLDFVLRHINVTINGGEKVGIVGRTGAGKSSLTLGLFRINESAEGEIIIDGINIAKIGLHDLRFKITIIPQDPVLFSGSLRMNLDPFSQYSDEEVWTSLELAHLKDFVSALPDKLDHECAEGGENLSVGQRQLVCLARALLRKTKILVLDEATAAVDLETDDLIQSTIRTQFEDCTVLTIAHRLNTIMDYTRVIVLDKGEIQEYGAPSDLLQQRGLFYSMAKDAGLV

SMILES: CC1(C)CC[C@]2(NC(=O)C(C)(F)F)CC[C@]3(C)[C@H](C(=O)C=C4[C@@]5(C)C=C(C#N)C(=O)C(C)(C)[C@@H]5CC[C@]43C)[C@@H]2C1 [RTA 408, N-((4aS,6aR,6bS,8aR,12aS,14aR,14bS)-11-cyano-2,2,6a,6b,9,9,12a-heptamethyl-10,14-dioxo-1,2,3,4,4a,5,6,6a,6b,7,8,8a,9,10,12a,14,14a,14b-octadecahydropicen-4a-yl)-2,2-difluoropropanamide]
- induction of enzyme activity [1]: not an inducer
- brain exposure over in vitro IC50 for NO inhibition [2, 22]: 240 fold
- lung exposure over in vitro IC50 for NO inhibition [2, 22]: 294 fold
- toxicity finding in the high dose group ([2]; 100 mg/kg, tissues collected on Day 6): observed toxicities
- liver NQO1 and GST enzyme activities ([2]; PO QD×14): induced dose-dependently
- IC50 [3]: 627 nM
- dose-normalized systemic exposure of loose-filled capsule vs suspension formulation [4]: somewhat lower
- MRP-1 substrate status [5]: not a substrate of MRP-1
- body weight gain approximately 24 hours after dosing ([6]; 30 mg/kg): Slight decreases in body weight gain
- basic neurobehavioral endpoints ([6]; doses up to and including 30 mg/kg, single oral dose): did not produce any adverse effects
- NQO1 protein levels [7]: increased NQO1 protein levels
- average clinical dermatitis scores over time [8]: statistically significant improvement in the scores
- IC50 [9]: 5 to 10 nM
- TNFα in BALF ([10]; 10 mg/kg): Significant reductions
- IL-12p40, TNFα, and RANTES in BALF ([10]; 30 mg/kg): significant reductions
- lung NQO1 enzyme activity and total GSH ([10]; 10 and 30 mg/kg): significant induction of NQO1 enzyme activity and increases in total GSH
- parent molecule remaining [11]: > 65%
- concentration at which increase in NQO1 enzymatic activity is evident [12]: 7.8 nM
- TNFα in BALF ([13]; 100 and 150 mg/kg doses): significant reduction
- IL-12p40 in BALF ([13]; all doses (30, 100, 150 mg/kg)): significant reduction
- EC50 [14]: 9.9 nM
- unique human metabolites [15]: No unique human metabolites
- parent molecule remaining ([15]; 60-minute incubation, NADPH and UGT): < 10%
- EC50 [16]: 56.4 nM
- tolerability finding that stopped dosing on day 14 ([17]; 30 mg/kg): excessive dehydration and diarrhea
- polymorphonuclear (PMN) cell infiltration into the lungs ([17]; 3 and 10 mg/kg, 28 days): significantly suppressed
- collagen deposition (trichrome staining) ([17]; rat, in vivo): significant decrease in collagen deposition
- NQO1, Txnrd, Gsr, and Gst enzyme activity in lungs ([17]; rats exposed to bleomycin): significantly and dose-dependently increased
- B cells within the airways ([18]; 30 mg/kg): significantly reduced the number and percentage of B cells
- macrophages detected in the airways ([18]; 3 and 30 mg/kg): significantly reduced the number of macrophages
- dose dependence of systemic exposure ([19]; 3 to 100 mg/kg, suspension): dose-proportional increases in systemic exposure
- exposure at higher doses ([19]; 100 to 800 mg/kg in monkeys, 500 to 2000 mg/kg in rats): saturation of absorption at doses above 100 mg/kg
- systemic exposure by sex ([19]; in vivo): generally similar in males and females
- exposure after repeated daily oral administration vs single dose ([19]; in vivo, po): ≤ 2 fold
- expression of Nrf2 target genes [20]: dose-dependent increase of all Nrf2 target genes evaluated
- concentration at which induction of NQO1, HMOX1, GCLM, TXNRD1 is evident [21]: ≤ 15.6 nM
